pIC50: −log10 of the molar value. Converted amounts (≈) assume the structure as drawn. “And” between values parts separate entries of the source, which are not always exact repeats. Equal entries are not always repeated. Where two headings read alike, the source gives them in different places.
Legend:
3T3 cells = assay: Cell growth inhibition bioassay (sulforhodamine B); format: cell-based, mouse; conditions: Mus musculus, NIH3T3; 48 h, SRB; read-out: GI50 in indicated cell line: 3T3
Summary of the method: (§1)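 Cells were exposed to compound alongside matched solvent controls, then stained with sulforhodamine B. Percent growth inhibition was calculated from dye absorbance against the control.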

DU145 cells = assay: Cell growth inhibition bioassay (sulforhodamine B); format: cell-based, human; conditions: Homo sapiens, DU-145; 48 h, SRB; read-out: GI50 in indicated cell line: DU145
Summary of the method: (§2)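 Cytotoxicity is read by sulforhodamine B colorimetry following the Skehan protocol; values are growth inhibition relative to solvent-only wells.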

H460 cells = assay: Cell growth inhibition bioassay (sulforhodamine B); format: cell-based, human; conditions: Homo sapiens, NCI-H460; 48 h, SRB; read-out: GI50 in indicated cell line: H460
Summary of the method: as §1

HT-29 cells = assay: Cell growth inhibition bioassay (sulforhodamine B); format: cell-based, human; conditions: Homo sapiens, HT-29; 48 h, SRB; read-out: GI50 in indicated cell line: HT-29
Summary of the method: as §1

K562 cells = assay: Cell growth inhibition bioassay (sulforhodamine B); format: cell-based, human; conditions: Homo sapiens, K562; 48 h, SRB; read-out: GI50 in indicated cell line: K562
Summary of the method: as §1

M-14 cells = assay: Cell growth inhibition bioassay (sulforhodamine B); format: cell-based, human; conditions: Homo sapiens, M14; 48 h, SRB; read-out: GI50 in indicated cell line: M-14
Summary of the method: as §1

MCF-7 cells = assay: Cell growth inhibition bioassay (sulforhodamine B); format: cell-based, human; conditions: Homo sapiens, MCF7; 48 h, SRB; read-out: GI50 in indicated cell line: MCF-7
Summary of the method: as §2

VERO cells = assay: Cell growth inhibition bioassay (sulforhodamine B); format: cell-based, African Green Monkey; conditions: Chlorocebus sabaeus, Vero; 48 h, SRB; read-out: GI50 in indicated cell line: VERO
Summary of the method: as §1

[1] = test system: Trypanosoma cruzi (Tulahuen C4); assay: In vitro anti-T. cruzi activity (β-galactosidase CPRG colorimetric assay in VERO monolayer); format: cell-based; conditions: for pIC50: Table 3, read-out: IC50 T. cruzi
M. tuberculosis H37Rv = assay: Conventional aerobic (MABA) culture assay, luminescence MIC; format: cell-based, Mycobacterium tuberculosis
[2] = test system: non-replicating persistence Mycobacterium tuberculosis (NRP-TB); assay: Low oxygen recovery assay (LORA); format: cell-based; conditions: value in brackets
[3] = Toxicity to peritoneal macrophages (Trypan Blue count); format: cell-based, BALB/C mouse; conditions: BALB/C, mouse, Cytotoxicity Macrophages IC50
[4] = test system: axenic amastigotes of L. amazonensis (strain MHOM/BR/76/LTB-012); conditions: Table 8b
[5] = Cytotoxicity VERO cell (Table 6); conditions: African green monkey, VERO cells
[6] = test system: axenic amastigotes of L. amazonensis (strain MHOM/BR/76/LTB-012); assay: microbe, parasite or virus in culture; conditions: Leishmania amazonensis
[7] = Cytotoxicity on VERO cells (MTT), anti-T. cruzi study; conditions: African green monkey, VERO cells
PC3 cells = assay: Cell growth inhibition bioassay (sulforhodamine B); format: cell-based; conditions: Homo sapiens, PC-3; 48 h, SRB; read-out: GI50 in indicated cell line: PC3
Procedure: The cytotoxicity of compounds was assayed as follows. […] Appropriate solvent controls were tested for comparison. The percent inhibition of cell growth relative to the control was evaluated colorimetrically using a sulforhodamine B dye by comparison to the control. The calorimetric procedure followed that published in Skehan et al., J. Nat. Cancer Inst., […], pp. 1107-1112 (1990) and Boyd & Paull, Drug Dev. Res., Vol. 34, pp. 91-109 (1995). […] The cell lines are: 3T3 cells are BALB/3T3 clone A31 embryonic mouse fibroblast cells; H460 cells are human large cell lung cancer cells; DU145 cells are human prostate carcinoma cells; MCF-7 cells are human breast adenocarcinoma cells; M-14 cells are human melanoma cells; HT-29 cells are human colon adenocarcinoma cells; PC3 cells are human prostate adenocarcinoma cells; K562 cells are human chronic myelogenous leukemia cells; and VERO cells are African Green Monkey kidney epithelial cells.

peritoneal macrophages = assay: Toxicity to peritoneal macrophages (Trypan Blue count); format: cell-based, BALB/C mouse; conditions: Mus musculus, Peritoneal macrophage, 48 h; Table 7; read-out: IC50 Macrophage
L. amazonensis Lma CL1 = assay: Activity against macrophages infected with Leishmania amastigotes; conditions: Leishmania amazonensis, Macrophage, 48 h, read-out: IC50 L. amazonensis Lma CL1
Procedure: A cloned line of Leishmania amazonensis(strain MHOM/BR/76/LTB-012) was used in all experiments. Axenically grown amastigote forms of L. amazonensis were maintained by weekly subpassages in MAA/20 medium (Sereno and Lemesre, Antimicrobial Agents and Chemotherapy 41, 972-976 (1997)) at 32±1° C. in 25 cm^2 tissue culture flasks. L. peruviana (strain MHOM/PE/LCA08) and L. braziliensis (strainMHOM/PE/PER006) were maintained in the promastigote stage in a biphasic medium (blood agar with 0.89% NaCl, pH 7.4) at 24° C., with sub-passage every 3 to 4 days. Promastigotes (5×10^6 parasites) were then transferred to 25 cm2 tissue culture flasks containing 5 ml of M199 medium supplemented with 10% foetal bovine serum (FBS), pH 7.4. After 4 days, exponential phase promastigotes were centrifuged for 10 minutes at 1500 g and 4° C. The supernatant was discarded and replaced by fresh M199 medium supplemented with 20% FBS, pH 5.5. Axenic amastigotes transformation was then induced by increasing the temperature to 34° C. and incubating for 96 h (Teixeira et al., Parasitology Research 88, 963-968 (2002)).
Extracted cells were immediately deposited on sterile 4×4 mm cover glasses and placed in each well of a 96-well plate. Plates were incubated for 24 h at 37° C., 5% CO2 to allow cell adhesion (Castillo et al, Journal of Ethnopharmacology 112, 410-414 (2007)). Pre-warmed complete M199 medium was used twice to remove non-adherent cells. A neutral red method (Fautz et al., Mutation Research 253, 173-179 (1991)) was employed to determine cell concentration. Approximately 7×10^4 viable cells were deposited in each well for adhesion.
Infection of macrophages by amastigotes was determined as follows. […] Twelve hours after infection, a solution of the compounds to be tested was added to the cultures at various concentrations and maintained at 37° C. in 5% CO2 for a further forty-eight hours more. The plates were fixed with methanol and stained with 10% Giemsa stain. The percentage of infected macrophages was determined microscopically at 100 times magnification. The number of intracellular amastigotes was determined in 300 cells. Following Delorenzi et al. Antimicrobial Agents and Chemotherapy, 45, 1349-1354 (2001)) the percentage of infection rate (% IR) of each culture was calculated as follows: % IR=100−(infection rate of the treated culture/infection rate of the untreated culture)×100.
All experiments were performed in triplicate. ANOVA was used to test for statistical significance of differences (Epi-Info, Statview student program). The total parasite burden was calculated as a mean number of amastigotes per cells multiplied by the number of infected macrophages.

L. braziliensis PER006 = assay: as above; conditions: Leishmania braziliensis, Macrophage, 48 h, read-out: IC50 L. braziliensis PER006
L. peruviana LCA08 = assay: as above; conditions: Leishmania peruviana, Macrophage, 48 h, read-out: IC50 L. peruviana LCA08
[8] = 10 μg/mL of each compound, 120 hours
[9] = Trypanosoma cruzi, TULAHUEN, Vero
[10] = 72 h, read-out: IC50 L. amazonensis

## COc1ccc(/C=N\Nc2ncnc3sc4c(c23)CCCC4)cc1 [II-10]
3T3 cells
  GI50: 5 mg/L
DU145 cells
  GI50: 7.8 mg/L
H460 cells
  GI50: 5.8 mg/L
HT-29 cells
  GI50: 5.9 mg/L
K562 cells
  GI50: 4.7 mg/L
M-14 cells
  GI50: 5.5 mg/L
MCF-7 cells
  GI50: 4.2 mg/L
VERO cells
  GI50: 6.4 mg/L (≈ 18.9 µM)
[1]; IC50, VERO/IC50, T. cruzi, Lab B
  Selectivity Index Lab B: 1.1
[1]; Trypanosoma cruzi, TULAHUEN, Vero, Lab B, read-out: T. cruzi IC50 Lab B
  IC50: 5.4 mg/L
M. tuberculosis H37Rv; Mycobacterium tuberculosis, 168 h, aerobic, 7 days, H37Rv
  MIC: 24.1 mg/L (≈ 71.2 µM)
M. tuberculosis H37Rv; VERO vs MABA MIC
  Selectivity Index H37Rv: 3.2
[2]; Mycobacterium tuberculosis, anaerobic 10 days, 28 hour recovery
  MIC: 9.1 mg/L (≈ 26.9 µM)
[2]; VERO vs LORA MIC
  Selectivity Index LORA: 8.5
[3]
  IC50 at 48 h: 21.6 µM
[4]
  Selectivity Index: 1.3
[5]
  IC50: 76.7 mg/L (≈ 227 µM)
[6]; read-out: L. amazonensis IC50
  pIC50: 4.79
[7]; Cytotoxicity VERO Lab B, Lab B
  IC50: 6 mg/L (≈ 17.7 µM)

## COc1ccc(/C=C/C(=O)c2c(O)cc(O)cc2OC)cc1 [Compound I-05, (E)-1-(2,4-Dihydroxy-6-methoxyphenyl)-3-(4-methoxyphenyl)-2-propen-1-one]
3T3 cells
  GI50: 6.7 µM
DU145 cells
  GI50: 9 µM
H460 cells
  GI50: 14 µM
HT-29 cells
  GI50: 21.6 µM
K562 cells
  GI50: 17 µM
M-14 cells
  GI50: 19.6 µM
MCF-7 cells
  GI50: 17.3 µM
PC3 cells
  GI50: 19.3 µM
[1]; [8]
  T. cruzi Inhib. (%): 68.88% and 38.57%
[1]; Trypanosoma cruzi, TULAHUEN, Vero, Table 2, read-out: IC50 - T. cruzi
  IC50: 5.98 mg/L
[1]; [9]
  pIC50: < 4.60
Peritoneal macrophages
  pIC50: 3.78
[6]; [10]
  pIC50: 5.00
[7]; IC50 - VERO Cytotoxicity, Table 2
  IC50: 5 mg/L (≈ 16.6 µM)
L. amazonensis Lma CL1
  pIC50: 4.84
L. braziliensis PER006
  pIC50: 5.12
L. peruviana LCA08
  pIC50: 4.64

## O=c1[nH]cc(F)c(=O)[nH]1 [Compound 5FU, 5-Fluorouracil, reference compound]
3T3 cells
  GI50: < 1.54 µM
DU145 cells
  GI50: 15.4 µM
H460 cells
  GI50: 4.1 µM
HT-29 cells
  GI50: 8.9 µM
K562 cells
  GI50: 16.7 µM
M-14 cells
  GI50: 22.4 µM
MCF-7 cells
  GI50: 6.5 µM
PC3 cells
  GI50: 14.6 µM

## COc1ccc(/C=C/C(=O)c2c(O)cc(OC)cc2OC)cc1 [Compound I-01, (2E)-1-(2-Hydroxy-4,6-dimethoxyphenyl)-3-(4-methoxyphenyl)-2-propen-1-one]
3T3 cells
  GI50: 17.2 µM
DU145 cells
  GI50: 30.8 µM
H460 cells
  GI50: 24.1 µM
HT-29 cells
  GI50: 45.3 µM
K562 cells
  GI50: 20.5 µM
M-14 cells
  GI50: 22.5 µM
MCF-7 cells
  GI50: 17.5 µM
PC3 cells
  GI50: 15.2 µM
[1]; [8]
  T. cruzi Inhib. (%): 41.36%
[1]; Trypanosoma cruzi, TULAHUEN, Vero, 120 h, 10 μg/mL of each compound, 120 hours, read-out: T. cruzi Inhib. (%)
  inhibition at 10 µg/mL: 29%
[1]; [9]
  pIC50: < 4.60
[6]; [10]
  pIC50: 4.76
